In US20230414775A1, “TUBULYSINS AND PROTEIN-TUBULYSIN CONJUGATES” (priority 2021, published 2023):
Where two headings read alike, the source gives them in different places.

Tests used:
[1] = tested on: HCT15 cells; assay: HCT15 anti-proliferation / cell killing assay (CellTiter-Glo), with or without verapamil; type: cell-based, human; details: Homo sapiens
Method: The cell line used in the anti-proliferation assays was HCT15, a human colon, colorectal carcinoma cell line. The HCT15 cells were grown in RPMI medium 1640+10% FBS. To run the assay, the cells (40 μL, 400 cells) were added to each well in a 384-well plate and incubated for twenty-four hours at 37° C. with 5% CO2. One hour before adding compounds, freshly dilute Verapamil to 0.2 mg/ml in ddH2O. Add 1 μL/well diluted Verapamil to Verapamil treatment wells and 1 μL/well ddH2O to the non-Verapamil treatment wells. Return plates to the incubator at 37° C. with 5% CO2. Then the cells were treated with test compounds at various concentrations using HPD300, and then normalize the DMSO to 0.5%. The control wells contained cells and the medium but lack the test compounds. The plates were incubated for 120 hours at 37° C. with 5% CO2. CTG reagent was then added to the wells (25 μL). After the plates were shaken for 10 min and then incubated for 10 min at room temperature, paste the clear bottom with white back seal and record luminescence with Envision. The inhibition % was calculated according to the following equation: inhibition %=[1−(assay-blank)/(control-blank)]×100.

[2] = tested on: SK-BR-3 cells; assay: SK-BR-3 anti-proliferation assay for payloads (CellTiter-Glo); type: cell-based; details: Homo sapiens, free payload, 120-144 h, read-out: SKBR3
Method: The cell line used in the anti-proliferation assays was SK-BR-3, a human breast, adenocarcinoma (pleural effusion) cell line. The cells were grown in McCoy's 5a Medium+10% FBS. To run the assay for payloads, the cells (40 μL, 700 cells) were added to each well in a 384-well plate and incubated for 24 hours at 37° C. with 5% CO2. Then the cells were treated with test compounds at various concentrations using HPD300, and then normalize the DMSO to 0.5%. The control wells contain cells and the medium but lack the test compounds. The plates were incubated for 120 h at 37° C. with 5% CO2. To run the assay for ADCs and some key payloads, the cells (80 μL, 1000 cells) were added to each well in a 96-well plate and incubated for twenty-four hours at 37° C. with 5% CO2. Next, the ADCs or payloads were diluted with Opti-Mem with 0.1% BSA. The cells were treated with test compounds or ADCs (20 μL) at various concentrations in appropriate cell culture medium (total volume, 0.1 mL). The final concentration of DMSO was adjusted to 0.2% and the Opti-Mem with 0.1% BSA was adjusted to 5%. The control wells contained cells and the medium but lacked the test compounds. The plates were incubated for 144 h at 37° C. with 5% CO2. CTG reagent was then added to the wells (25 μL/384-well or 100 μL/96-well). After the plates were shaken for 10 min and then incubated for 10 min at room temperature, paste the clear bottom with white back seal and record luminescence with Envision. The inhibition % was calculated according to the following equation: inhibition %=[1-(assay-blank)/(control-blank)]×100.

[3] = HCT15 cells, no verapamil, 120 h (5 days), read-out: HCT-15
[4] = HCT-15, HCT15 cells pre-treated with verapamil, 120 h, read-out: HCT-15 with verapamil

Row | SMILES | IC50 [1, 3] | IC50 [1, 4] | IC50 [2]
1 | CCCCCCN(C(=O)[C@@H](NC(=O)[C@H]1CCCCN1C)[C@@H](C)CC)[C@H](C[C@@H](OC(C)=O)c1nc(C(=O)N[C@@H](Cc2ccc(NCC(N)=O)cc2)CC(C)(C)C(=O)O)cs1)C(C)C (racemic) [PA18, Rac-(R)-4-(2-((1S,3S)-1-acetoxy-3-((2R,3R)—N-hexyl-3-methyl-2-((S)-1-methylpiperidine-2-carboxamido)pentanamido)-4-methylpentyl)thiazole-4-carboxamido)-acid] | 0.3 nM | 0.131 nM | 0.067 nM
2 | CCCCCCN(C(=O)[C@@H](NC(=O)[C@H]1CCCCN1C)[C@@H](C)CC)[C@H](C[C@@H](OC(C)=O)c1nc(C(=O)N[C@@H](Cc2ccc(N(CCO)C(=O)CN)cc2)CC(C)(C)C(=O)O)cs1)C(C)C (racemic) [PA19, Rac-(R)-4-(2-((1S,3S)-1-acetoxy-3-((2R,3R)—N-hexyl-3-methyl-2-((S)-1-methylpiperidine-2-carboxamido)pentanamido)-4-methylpentyl)thiazole-4-carboxamido)-acid] | 10.8 nM | 1.8 nM | 1.84 nM
3 | CCCCCCN(C(=O)[C@@H](NC(=O)[C@H]1CCCCN1C)[C@@H](C)CC)[C@H](C[C@@H](OC(C)=O)c1nc(C(=O)N[C@@H](Cc2ccc(N)cc2)CC(C)(C)C(=O)NCC(=O)O)cs1)C(C)C (racemic) [PA29, Rac-((R)-4-(2-((1S,3S)-1-acetoxy-3-((2R,3R)—N-hexyl-3-methyl-2-((S)-1-methylpiperidine-2-carboxamido)pentanamido)-4-methylpentyl)thiazole-4-carboxamido)-5-(4-aminophenyl)-2,2-dimethylpentanoyl)glycine] | 97.1 nM | 9.7 nM | 1.47 nM
4 | CCCCCCN(C(=O)[C@@H](NC(=O)[C@@]1(C)CCCN1)[C@@H](C)CC)[C@H](C[C@@H](OC(C)=O)c1nc(C(=O)N[C@@H](Cc2ccc(O)cc2)CC(C)(C)C(=O)O)cs1)C(C)C [Compound P22, reference compound] | 0.265 nM | 0.078 nM | 0.087 nM
5 | CCCCCCN(C(=O)[C@@H](NC(=O)[C@H]1CCCCN1C)[C@@H](C)CC)[C@H](C[C@@H](OC(C)=O)c1nc(C(=O)N[C@@H](Cc2ccc(NC(=O)CN)cc2)CC(C)(C)C(=O)O)cs1)C(C)C [Compound P28, reference compound] | 0.172 nM | 0.107 nM | 0.039 nM
6 | C#CCCCON(C(=O)[C@@H](NC(=O)[C@@]1(C)CCCN1CCO)[C@@H](C)CC)[C@H](C[C@@H](OC(C)=O)c1nc(C(=O)N[C@@H](Cc2ccc(N)cc2)CC(C)(C)C(=O)O)cs1)C(C)C [PA3, (4S)-4-({2-[(1R,3R)-1-(acetyloxy)-3-[(2S,3S)-2-{[(2R)-1-(2-hydroxyethyl)-2-methylpyrrolidin-2-yl]formamido}-3-methyl-N-(pent-4-yn-1-yloxy)pentanamido]-4-methylpentyl]-1,3-thiazol-4-yl}formamido)-5-(4-aminophenyl)-2,2-dimethylpentanoic acid] | 7.7 nM | 0.741 nM | 1.46 nM
7 | CCCCCCN(C(=O)[C@@H](NC(=O)[C@H]1CCCCN1CCN)[C@@H](C)CC)[C@H](C[C@@H](OCC)c1nc(C(=O)N[C@@H](Cc2ccc(O)cc2)CC(C)(C)C(=O)O)cs1)C(C)C [PA4, (S)-4-(2-((1R,3R)-3-((2S,3S)-2-((R)-1-(2-aminoethyl)piperidine-2-carboxamido)-N-hexyl-3-methylpentanamido)-1-ethoxy-4-methylpentyl)thiazole-4-carboxamido)-5-(4-hydroxyphenyl)-2,2-dimethylpentanoic acid] | 85 nM | 6.19 nM | > 1 nM
8 | CCCCCCN(C(=O)[C@@H](NC(=O)[C@@]1(C)CCCN1CCO)[C@@H](C)CC)[C@H](C[C@@H](OC(C)=O)c1nc(C(=O)N[C@@H](Cc2ccc(N)cc2)CC(C)(C)C(=O)O)cs1)C(C)C [PA6, (4S)-4-({2-[(1R,3R)-1-(acetyloxy)-3-[(2S,3S)—N-hexyl-2-{[(2R)-1-(2-hydroxyethyl)-2-methylpyrrolidin-2-yl]formamido}-3-methylpentanamido]-4-methylpentyl]-1,3-thiazol-4-yl}formamido)-5-(4-aminophenyl)-2,2-dimethylpentanoic acid] | 3.27 nM | 0.62 nM | 0.514 nM
9 | CCCCCCN(C(=O)[C@@H](NC(=O)[C@H]1CCCCN1CCO)[C@@H](C)CC)[C@H](C[C@@H](OC(C)=O)c1nc(C(=O)N[C@@H](Cc2ccc(N)c(F)c2)CC(C)(C)C(=O)O)cs1)C(C)C [PA8, (4S)-4-({2-[(1R,3R)-1-(acetyloxy)-3-[(2S,3S)—N-hexyl-2-{[(2R)-1-(2-hydroxyethyl)piperidin-2-yl]formamido}-3-methylpentanamido]-4-methylpentyl]-1,3-thiazol-4-yl}formamido)-5-(4-amino-3-fluorophenyl)-2,2-dimethylpentanoic acid] | 0.072 nM | 0.029 nM | 0.017 nM
10 | CCCCCCN(C(=O)[C@@H](NC(=O)[C@H]1CCCCN1CCO)[C@@H](C)CC)[C@H](C[C@@H](OCC)c1nc(C(=O)N[C@@H](Cc2ccc(NC(=O)CN)cc2)CC(C)(C)C(=O)O)cs1)C(C)C [PA9, (S)-5-(4-(2-aminoacetamido)phenyl)-4-(2-((1R,3R)-1-ethoxy-3-((2S,3S)—N-hexyl-2-((R)-1-(2-hydroxyethyl)piperidine-2-carboxamido)-3-methylpentanamido)-4-methylpentyl)thiazole-4-carboxamido)-2,2-dimethylpentanoic acid] | 9.89 nM | 1.08 nM | 5.38 nM
11 | CCCCCCN(C(=O)[C@@H](NC(=O)[C@H]1CCCCN1CC(=O)O)[C@@H](C)CC)[C@H](C[C@@H](OC(C)=O)c1nc(C(=O)N[C@@H](Cc2ccc(N)cc2)CC(C)(C)C(=O)O)cs1)C(C)C [PA10, (S)-4-(2-((1R,3R)-1-acetoxy-3-((2S,3S)-2-((R)-1-(carboxymethyl)piperidine-2-carboxamido)-N-hexyl-3-methylpentanamido)-4-methylpentyl)thiazole-4-carboxamido)-5-(4-aminophenyl)-2,2-dimethylpentanoic acid] | 31.7 nM | 2.95 nM | 5.33 nM
12 | CCCCCCN(C(=O)[C@@H](NC(=O)[C@H]1CCCCN1CCOCCN)[C@@H](C)CC)[C@H](C[C@@H](OC(C)=O)c1nc(C(=O)N[C@@H](Cc2ccc(N)cc2)CC(C)(C)C(=O)O)cs1)C(C)C [PA11, (4S)-4-({2-[(1R,3R)-1-(acetyloxy)-3-[(2S,3S)-2-{[(2R)-1-[2-(2-aminoethoxy)ethyl]piperidin-2-yl]formamido}-N-hexyl-3-methylpentanamido]-4-methylpentyl]-1,3-thiazol-4-yl}formamido)-5-(4-aminophenyl)-2,2-dimethylpentanoic acid] | 150 nM | 5.3 nM | 15.1 nM
13 | CCCCCCN(C(=O)[C@@H](NC(=O)[C@H]1CCCCN1CCOCCOCCN)[C@@H](C)CC)[C@H](C[C@@H](OC(C)=O)c1nc(C(=O)N[C@@H](Cc2ccc(N)cc2)CC(C)(C)C(=O)O)cs1)C(C)C [PA12, (4S)-4-({2-[(1R,3R)-1-(acetyloxy)-3-[(2S,3S)-2-{[(2R)-1-{2-[2-(2-aminoethoxy)ethoxy]ethyl}piperidin-2-yl]formamido}-N-hexyl-3-methylpentanamido]-4-methylpentyl]-1,3-thiazol-4-yl}formamido)-5-(4-aminophenyl)-2,2-dimethylpentanoic acid] | 72.1 nM | 4.73 nM | > 100 nM
14 | CCCCCCN(C(=O)[C@@H](NC(=O)[C@H]1CCCCN1C)[C@@H](C)CC)[C@H](C[C@@H](NC(C)=O)c1nc(C(=O)N[C@@H](Cc2ccc(NC(=O)CN)cc2)CC(C)(C)C(=O)O)cs1)C(C)C [PA21, (S)-4-(2-((1R,3R)-1-acetamido-3-((2S,3S)—N-hexyl-3-methyl-2-((R)-1-methylpiperidine-2-carboxamido)pentanamido)-4-methylpentyl)thiazole-4-carboxamido)-acid] | 13.8 nM | 1.73 nM | 0.703 nM
